#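 Five concentrations, 48 hours, 96-well plates. Here, GI50 denotes the concentration required for 50% inhibition of growth.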 Activity calls are given as the source filed them. Rule as the data show it: active = GI50 up to about 1.1 µM and inactive = higher.
# Legend:
# Assay in all cases: inhibition of tumour cell growth, NCI panel, 48 h
# SNB-19 = test system: SNB-19
# LOX IMVI = test system: LOX IMVI
# SN12C = test system: SN12C
# KM12 = test system: KM12
# Malme-3M = test system: Malme-3M
# NCI/ADR-RES = test system: NCI/ADR-RES
# SF-295 = test system: SF-295
# BT-549 = test system: BT-549
# SK-MEL-28 = test system: SK-MEL-28
# SK-MEL-2 = test system: SK-MEL-2
# M14 = test system: M14
# T47D = test system: T47D
# OVCAR-5 = test system: OVCAR-5
# NCI-H23 = test system: NCI-H23
# OVCAR-8 = test system: OVCAR-8
# MDA-MB-435 = test system: MDA-MB-435
# UACC-62 = test system: UACC-62
# HCT-116 = test system: HCT-116
# HT-29 = test system: HT-29
# HL-60 = test system: HL-60
# PC-3 = test system: PC-3
# A498 = test system: A498
# CAKI-1 = test system: CAKI-1
# MCF7 = test system: MCF7
# EKVX = test system: EKVX
# TK-10 = test system: TK-10
# UACC-257 = test system: UACC-257
# NCI-H226 = test system: NCI-H226
# 786-0 = test system: 786-0
# HCT-15 = test system: HCT-15
# UO-31 = test system: UO-31
# U-251 = test system: U-251
# SW-620 = test system: SW-620
# MDA-MB-231 = test system: MDA-MB-231
# COLO 205 = test system: COLO 205
# IGROV-1 = test system: IGROV-1
# RXF 393 = test system: RXF 393
# Hs-578T = test system: Hs-578T
# SF-268 = test system: SF-268
# ACHN = test system: ACHN
# RPMI-8226 = test system: RPMI-8226
# K562 = test system: K562
# SK-MEL-5 = test system: SK-MEL-5
# SNB-75 = test system: SNB-75
# CCRF-CEM = test system: CCRF-CEM
# SF-539 = test system: SF-539
# MDA-N = test system: MDA-N
# DU-145 = test system: DU-145
# SK-OV-3 = test system: SK-OV-3
# OVCAR-3 = test system: OVCAR-3
# MOLT-4 = test system: MOLT-4
# NCI-H522 = test system: NCI-H522
# SR = test system: SR
# OVCAR-4 = test system: OVCAR-4
# HOP-92 = test system: HOP-92
# NCI-H460 = test system: NCI-H460
# A549 = test system: A549
# HCC 2998 = test system: HCC 2998
# HOP-62 = test system: HOP-62
compound,measurement,setting,value
CCOC(=O)c1c(NC(=O)c2ccccc2)sc2c1CCCC2,GI50,SNB-19,> 100 µM (inactive)
same,GI50,LOX IMVI,> 100 µM (inactive)
same,GI50,SN12C,> 100 µM (inactive)
same,GI50,KM12,> 100 µM (inactive)
same,GI50,Malme-3M,78.9 µM (inactive)
same,GI50,NCI/ADR-RES,> 100 µM (inactive)
same,GI50,SF-295,> 100 µM (inactive)
same,GI50,BT-549,> 100 µM (inactive)
same,GI50,SK-MEL-28,> 100 µM (inactive)
same,GI50,SK-MEL-2,> 100 µM (inactive)
same,GI50,M14,> 100 µM (inactive)
same,GI50,T47D,> 100 µM (inactive)
same,GI50,OVCAR-5,> 100 µM (inactive)
same,GI50,NCI-H23,> 100 µM (inactive)
same,GI50,OVCAR-8,> 100 µM (inactive)
same,GI50,MDA-MB-435,> 100 µM (inactive)
same,GI50,UACC-62,> 100 µM (inactive)
same,GI50,HCT-116,> 100 µM (inactive)
same,GI50,HT-29,> 100 µM (inactive)
same,GI50,HL-60,> 100 µM (inactive)
same,GI50,PC-3,> 100 µM (inactive)
same,GI50,A498,> 100 µM (inactive)
same,GI50,CAKI-1,> 100 µM (inactive)
same,GI50,MCF7,> 100 µM (inactive)
same,GI50,EKVX,> 100 µM (inactive)
same,GI50,TK-10,> 100 µM (inactive)
same,GI50,UACC-257,> 100 µM (inactive)
same,GI50,NCI-H226,> 100 µM (inactive)
same,GI50,786-0,> 100 µM (inactive)
same,GI50,HCT-15,> 100 µM
same,GI50,UO-31,> 100 µM (inactive)
same,GI50,U-251,> 100 µM (inactive)
same,GI50,SW-620,> 100 µM (inactive)
same,GI50,MDA-MB-231,81.7 µM (inactive)
same,GI50,COLO 205,> 100 µM (inactive)
same,GI50,IGROV-1,> 100 µM (inactive)
same,GI50,RXF 393,> 100 µM (inactive)
same,GI50,Hs-578T,> 100 µM (inactive)
same,GI50,SF-268,> 100 µM (inactive)
same,GI50,ACHN,> 100 µM (inactive)
same,GI50,RPMI-8226,> 100 µM (inactive)
same,GI50,K562,> 100 µM (inactive)
same,GI50,SK-MEL-5,> 100 µM (inactive)
same,GI50,SNB-75,7.23 µM (inactive)
same,GI50,CCRF-CEM,> 100 µM (inactive)
same,GI50,SF-539,> 100 µM (inactive)
same,GI50,MDA-N,> 100 µM (inactive)
same,GI50,DU-145,> 100 µM (inactive)
same,GI50,SK-OV-3,> 100 µM (inactive)
same,GI50,OVCAR-3,> 100 µM (inactive)
same,GI50,MOLT-4,> 100 µM (inactive)
COc1cc(-c2cc(=O)c3c(OC)c(OC)c(OC)c(OC)c3o2)cc(OC)c1OC [HEPATAMETHOXYFLAVONE],GI50,SNB-19,76.6 µM (inactive)
same,GI50,LOX IMVI,25.9 µM (inactive)
same,GI50,SN12C,43.6 µM (inactive)
same,GI50,Malme-3M,39.6 µM (inactive)
same,GI50,NCI/ADR-RES,23.6 µM (inactive)
same,GI50,SF-295,28.1 µM (inactive)
same,GI50,BT-549,48.6 µM (inactive)
same,GI50,SK-MEL-28,53.2 µM (inactive)
same,GI50,SK-MEL-2,27.9 µM (inactive)
same,GI50,M14,45.7 µM (inactive)
same,GI50,T47D,12.7 µM (inactive)
same,GI50,OVCAR-5,> 100 µM (inactive)
same,GI50,NCI-H23,41.8 µM (inactive)
same,GI50,NCI-H522,19.1 µM (inactive)
same,GI50,OVCAR-8,24.5 µM (inactive)
same,GI50,MDA-MB-435,29 µM (inactive)
same,GI50,UACC-62,21 µM (inactive)
same,GI50,HCT-116,44.8 µM (inactive)
same,GI50,HT-29,35.9 µM (inactive)
same,GI50,HL-60,15 µM (inactive)
same,GI50,A498,21.2 µM (inactive)
same,GI50,CAKI-1,21.6 µM (inactive)
same,GI50,MCF7,84.3 µM (inactive)
same,GI50,EKVX,48.4 µM (inactive)
same,GI50,SR,> 100 µM (inactive)
same,GI50,TK-10,44.4 µM (inactive)
same,GI50,OVCAR-4,32.4 µM (inactive)
same,GI50,UACC-257,40 µM (inactive)
same,GI50,NCI-H226,44.8 µM (inactive)
same,GI50,786-0,58.9 µM (inactive)
same,GI50,HCT-15,33.4 µM
same,GI50,HOP-92,9.98 µM (inactive)
same,GI50,UO-31,7.38 µM (inactive)
same,GI50,U-251,40.1 µM (inactive)
same,GI50,SW-620,55 µM (inactive)
same,GI50,MDA-MB-231,31.6 µM (inactive)
same,GI50,COLO 205,18.7 µM (inactive)
same,GI50,IGROV-1,52.2 µM (inactive)
same,GI50,RXF 393,28.1 µM (inactive)
same,GI50,Hs-578T,29 µM (inactive)
same,GI50,NCI-H460,42.3 µM (inactive)
same,GI50,SF-268,32.9 µM (inactive)
same,GI50,ACHN,21.9 µM (inactive)
same,GI50,RPMI-8226,26.1 µM (inactive)
same,GI50,A549,35.5 µM (inactive)
same,GI50,K562,63.4 µM (inactive)
same,GI50,HCC 2998,30.3 µM (inactive)
same,GI50,HOP-62,41.9 µM (inactive)
same,GI50,SK-MEL-5,12.4 µM (inactive)
same,GI50,SNB-75,26.4 µM (inactive)
same,GI50,CCRF-CEM,30.5 µM (inactive)
same,GI50,SF-539,> 100 µM (inactive)
same,GI50,MDA-N,42.7 µM (inactive)
same,GI50,DU-145,45.5 µM (inactive)
same,GI50,SK-OV-3,3.87 µM (inactive)
same,GI50,OVCAR-3,25.5 µM (inactive)
same,GI50,MOLT-4,24.9 µM (inactive)
C1CCC2(CC1)O[C@@H]1[C@@H](O2)[C@@H](O[C@H]2O[C@@H]3COC4(CCCCC4)O[C@H]3[C@@H]3OC4(CCCCC4)O[C@@H]23)O[C@@H]2COC3(CCCCC3)O[C@@H]12,GI50,SNB-19,> 100 µM (inactive)
same,GI50,LOX IMVI,> 100 µM (inactive)
same,GI50,SN12C,> 100 µM (inactive)
same,GI50,KM12,> 100 µM (inactive)
same,GI50,Malme-3M,> 100 µM (inactive)
same,GI50,NCI/ADR-RES,> 100 µM (inactive)
same,GI50,SF-295,> 100 µM (inactive)
same,GI50,BT-549,> 100 µM (inactive)
same,GI50,SK-MEL-28,> 100 µM (inactive)
same,GI50,SK-MEL-2,> 100 µM (inactive)
same,GI50,M14,> 100 µM (inactive)
same,GI50,T47D,> 100 µM (inactive)
same,GI50,OVCAR-5,> 100 µM (inactive)
same,GI50,NCI-H23,> 100 µM (inactive)
same,GI50,NCI-H522,> 100 µM (inactive)
same,GI50,OVCAR-8,> 100 µM (inactive)
same,GI50,MDA-MB-435,> 100 µM (inactive)
same,GI50,UACC-62,> 100 µM (inactive)
same,GI50,HCT-116,> 100 µM (inactive)
same,GI50,HT-29,> 100 µM (inactive)
same,GI50,HL-60,11.4 µM (inactive)
same,GI50,PC-3,> 100 µM (inactive)
same,GI50,A498,> 100 µM (inactive)
same,GI50,CAKI-1,> 100 µM (inactive)
same,GI50,MCF7,> 100 µM (inactive)
same,GI50,EKVX,> 100 µM (inactive)
same,GI50,TK-10,> 100 µM (inactive)
same,GI50,OVCAR-4,> 100 µM (inactive)
same,GI50,UACC-257,> 100 µM (inactive)
same,GI50,786-0,> 100 µM (inactive)
same,GI50,HOP-92,> 100 µM (inactive)
same,GI50,UO-31,> 100 µM (inactive)
same,GI50,U-251,> 100 µM (inactive)
same,GI50,SW-620,> 100 µM (inactive)
same,GI50,MDA-MB-231,> 100 µM (inactive)
same,GI50,COLO 205,> 100 µM (inactive)
same,GI50,IGROV-1,> 100 µM (inactive)
same,GI50,RXF 393,> 100 µM (inactive)
same,GI50,Hs-578T,> 100 µM (inactive)
same,GI50,SF-268,> 100 µM (inactive)
same,GI50,ACHN,> 100 µM (inactive)
same,GI50,RPMI-8226,36.6 µM (inactive)
same,GI50,A549,> 100 µM (inactive)
same,GI50,K562,> 100 µM (inactive)
same,GI50,HOP-62,> 100 µM (inactive)
same,GI50,SK-MEL-5,> 100 µM (inactive)
same,GI50,SNB-75,> 100 µM (inactive)
same,GI50,CCRF-CEM,> 100 µM (inactive)
same,GI50,SF-539,> 100 µM (inactive)
same,GI50,MDA-N,> 100 µM (inactive)
same,GI50,DU-145,> 100 µM (inactive)
same,GI50,SK-OV-3,> 100 µM (inactive)
same,GI50,OVCAR-3,> 100 µM (inactive)
same,GI50,MOLT-4,23.9 µM (inactive)
